Test results reported in the NIST ThermoML archive (doi:10.1016/j.jct.2018.12.032).

Columns and labels:
[1] = for vapor or sublimation pressure: Transpiration method
[2] = Molar enthalpy of transition or fusion; conditions: Crystal; DSC

c1ccc(-n2c3ccccc3c3ccccc32)cc1 [N-phenylcarbazole]
[1]
Conditions	Glass transition temperature [°C]	Normal melting temperature [°C]	vapor or sublimation pressure [kPa]
330.1 K, Crystal	–	–	9.2e-06
336.4 K, Crystal	–	–	2.01e-05
343.5 K, Crystal	–	–	4.67e-05
349.2 K, Crystal	–	–	9.26e-05
350 K, Metastable liquid	–	–	0.000128
356.1 K, Crystal	–	–	0.00019
356.1 K, Metastable liquid	–	–	0.000224
362.8 K, Crystal	–	–	0.0003947
362.8 K, Metastable liquid	–	–	0.000395
368.5 K, Metastable liquid	–	–	0.000657
372.4 K, Liquid	–	–	0.000913
377.3 K, Liquid	–	–	0.001342
Crystal, DTA	–	94.8	–
Glass, DSC	-18.3	–	–

Conditions	Molar enthalpy of transition or fusion [kcal/mol]
[2]	4.64
